≈ marks a conversion by molar mass, not a printed value. Entries after “also recorded” stand apart in the source; their conditions may differ.
Columns and labels:
[1] = system: LPS-stimulated RAW 264.7 cells; assay: NO production inhibition in LPS-stimulated RAW 264.7 cells (Griess); format: cell-based, murine; conditions: for IC50: Mus musculus, RAW264.7, RAW 264.7, 2 h pre-treatment, 500 ng/mL LPS 24 h; for Inhibition of LPS-induced NO production: RAW 264.7, single-concentration test at 100 µg/mL, vs control cells
Experimental: […] in a humidified environment containing 5% CO2 and 95% air. For NO and ROS production inhibition assays, the cytotoxic effect of tested samples at 100 µg/mL after 24 h of exposure was initially measured on RAW 264.7 cells (10,000 cells per well) using the standard MTT assay. Then, for NO production inhibition assay, RAW 264.7 cells were pre-treated with tested samples at 100 µg/mL for 2 h followed by addition of culture medium containing 500 ng/mL of lipopolysaccharide (LPS) (Merck, Darmstadt, Germany). After 24 h of incubation under standard cell-culture conditions, NO released was measured in cell supernatants using the Griess reagent (Sigma Aldrich, Darmstadt, Germany), and a SpectraMax iD3 multi-mode microplate reader (Molecular Devices, San Jose, CA, USA) was used to capture the absorbance readings at 540 nm. The ability of each tested material to reduce nitric oxide synthesis by LPS-stimulated RAW 264.7 macrophages in comparison to the negative control (cells treated with DMSO at 0.5% and LPS without extract) was used to calculate the percentage of NO production inhibition.
(§1) The IC50 values were calculated for each biological experiment using the nonlinear regression curve of the % inhibitory activity versus the logarithm (log10) of the various tested concentrations using GraphPad Prism 6.0 software (GraphPad Software, Inc., San Diego, CA, USA). The data are shown as mean ⁱ SEM (standard error of the mean) values, and all biological experiments were conducted in triplicate (n = 3). The statistical analysis was conducted using GraphPad Prism 6.0 software (GraphPad Software, Inc., San Diego, CA, USA). One-way analysis of variance (ANOVA) was used to compare the data across the tested samples and/or controls, and Student–Newman–Keuls or Dunnett’s tests were then performed. A p-value of less than 0.05 indicated a significant difference in the results.

[2] = ABTS radical scavenging assay; conditions: 5 min, 734 nm
Experimental: (§2) Three in vitro antioxidant assays, namely, 2,2′-azinobis-(3-ethylbenzothiazoline-6-sulfonic acid (ABTS), 2,2′-diphenyl-1-picrylhydrazyl (DPPH), and ferric ion reducing antioxidant power (FRAP), were used to determine the antioxidant activity according to methods previously reported. Ascorbic acid (0 to 200 μg/mL) was used as positive control in these experiments, and Formula (1) below allowed us to evaluate the percentage of radical scavenging capacity. The inhibitory concentration (IC50) values were evaluated by plotting a nonlinear graph of percentage radical scavenging capacity versus logarithm of tested concentrations. Scavenging capacity (%) = [(A0 − A1)/A0] × 100(1) where A0 is absorbance of negative control, and A1 is absorbance of extract with ABTS^•+ radical cation.
Specifically, 2.45 mM of potassium persulfate and 7 mM of ABTS solution were dissolved in methanol and combined to create the ABTS^•+ radical cation, which was stored at 25 °C for a minimum of 16 h. At 734 nm, the absorbance of the generated ABTS^•+ was measured using a SpectraMax iD3 multi-mode microplate reader (Molecular Devices, San Jose, CA, USA) and calibrated to 0.70 ± 0.02. After carefully diluting 40 μL of EMME (1 mg/mL) with methanol and adding 160 μL of (ABTS^•+) radical cation, the 96-well microtiter plate was left to sit at 25 °C in the dark for five minutes. Using a SpectraMax iD3 multi-mode microplate reader, the absorbance values were measured at 734 nm against the blank (extract plus methanol without ABTS^•+). A nonlinear curve representing the percentage of ABTS^•+ scavenging capacity vs. a logarithm of tested concentrations was then plotted to determine the inhibitory concentration (IC50) values.
as §1

[3] = Ferric reducing antioxidant power (FRAP) assay; conditions: relative to 200 µg/mL gallic acid, 700 nm
Experimental: as §2
The generally used and almost standard method for performing the FRAP test is that developed by Benzie and Strain [15]. Indeed, the antioxidant power is determined in a colorimetric reaction linked to redox in which an intense blue-colored ferroustripyridyltriazine (Fe^2+-TPTZ) complex is obtained via reduction at a low pH of ferrictripyridyltriazine (Fe^3+-TPTZ). The incubation of a quantity of 50 μL of EMME (1.56 to 200 μg/mL) or 200 μg/mL of gallic acid (Merck, Lethabong, South Africa) on a 96-well plate was carried out with 50 μL of 1% potassium ferricyanide (prepared in 0.2 M of sodium phosphate buffer, pH 6.6) for 30 min at 50 °C. Then, 50 μL of 10% trichloroacetic acid (TCA), 40 μL of distilled water, and 10 μL of 0.1% ferric chloride were added, respectively. The absorbance values were recorded on a blank (extract plus sodium phosphate buffer) at 700 nm on a SpectraMax iD3 multi-mode microplate reader (Molecular Devices, San Jose, CA, USA); the FRAP activity was indicated as inhibition percentage of 200 μg/mL of gallic acid.
as §1

[4] = DPPH radical scavenging assay; conditions: 30 min, 517 nm
Experimental: as §2
To be able to determine the DPPH^• scavenging capacity of EMME, we performed a serial dilution of 40 μL of the sample (1 mg/mL) with methanol on a 96-well microtiter plate, with 160 μL of solution of DPPH^• thereafter (25 μg/mL). The incubation at 25 °C in the dark was performed after 30 min, with the absorbance values measured at 517 nm on a SpectraMax iD3 multi-mode microplate against a blank (extract plus methanol without DPPH^•). […]. Methanol with DPPH^• served as the negative control. Using Formula (1), the DPPH scavenging capability was calculated at the measured concentrations above, and as previously enumerated, the IC50 values were also calculated, as indicated in the previously described procedure.
as §1

Structure (SMILES) | IC50 [1] | IC50 ABTS [2] | IC50 FRAP [3] | IC50 DPPH [4] | Inhibition of LPS-induced NO production [1] | Inhibition of LPS-induced NO production ([1]; listed as Genistin (5)) | Inhibition of LPS-induced NO production ([1]; listed as genistin (5)) | IC50 ABTS ([2]; listed as genistin) | IC50 DPPH ([4]; listed as genistin)
CCCCCCCCCCCCCCCC [Compound 1, n-hexadecane] | > 100 µg/mL | >100 µg/mL | >200 µg/mL | >100 µg/mL | – | – | – | – | –
CCCCCCCCCCCCCCCCCCCCCCCO [Compound 3, tricosan-1-ol] | > 100 µg/mL | >100 µg/mL | >200 µg/mL | >100 µg/mL | – | – | – | – | –
O=c1c2c(O)cc(O)cc2oc2oc3cc(O)ccc3c12 [Compound 4, lupinalbin A] | > 100 µg/mL | >100 µg/mL | >200 µg/mL | >100 µg/mL | – | – | – | – | –
O=c1c(-c2ccc(O)cc2)coc2cc(O[C@@H]3O[C@H](CO)[C@@H](O)[C@H](O)[C@H]3O)cc(O)c12 [Compound 5, genistin] | 66 ± 4.21 µg/mL (≈ 153 µM) | 91.02 ± 1.33 µg/mL (≈ 211 µM) | >200 µg/mL | 99.89 ± 1.26 µg/mL (≈ 231 µM) | significantly inhibited | able to inhibit | moderate activity; also recorded: moderately effective | 99.89 µg/mL (≈ 231 µM) | 91.02 µg/mL (≈ 211 µM)
CO[C@H]1[C@H](O)[C@@H](O)[C@@H](O)[C@H](O)[C@@H]1O [Compound 6, D-pinitol] | > 100 µg/mL | >100 µg/mL | >200 µg/mL | >100 µg/mL | – | – | – | – | –
CC[C@H](/C=C/[C@@H](C)[C@H]1CC[C@H]2[C@@H]3CC=C4C[C@@H](O[C@@H]5O[C@H](CO)[C@@H](O)[C@H](O)[C@H]5O)CC[C@]4(C)[C@H]3CC[C@]12C)C(C)C [Compound 7, stigmasterol glucoside] | > 100 µg/mL | >100 µg/mL | >200 µg/mL | >100 µg/mL | – | – | – | – | –

From publication PMC11678782, “The Antioxidant and Anti-Inflammatory Activities of the Methanolic Extract, Fractions, and Isolated Compounds from Eriosema montanum Baker f. (Fabaceae)” (Molecules, 2024)
